Reference: patent US5451583A, “Substituted benzimidazoles and quinazolines as antihypertensives” (American Home Products Corporation, priority 1994, dated 1995)
Where a name gives a salt, the structure may show the parent alone.

Tested on: A II-infused rat
Assay: A II-infused rat model (ganglion-blocked), antihypertensive action
Format: in vivo
Conditions: 3 mg/kg id (intraduodenal), four hours post-administration
Protocol: In accordance with their ability to antagonize angiotensin II, the compounds of this invention show antihypertensive action in the following A II-infused rat model. Rats are anesthetized with Dial-Urethane (0.60 mL/kg, ip) and the trachea cannulated with PE 240. Either one femoral artery and both femoral veins or the carotid artery and the corresponding jugular vein are cannulated with PE 50. If the jugular vein is cannulated, two cannulas are placed in the one vein. The initial portion of the duodenum (just distal to the stomach) is cannulated with PE 50 via a small midline incision. Arterial pressure and heart rate are measured from the arterial cannula. Ten to 15 min are allowed following surgery for stabilization of arterial pressure. Ganglion blockade is then produced by intravenous administration of mecamylamine at 3 mg/kg (1 mL/kg of a 3 mg/mL solution). Ganglion blockade causes a fall in arterial pressure of about 50 mmHg. Mecamylamine is given every 90 min throughout the remainder of the experiment. An A II infusion is then begun into the other venous cannula at 0.25 μg/kg/min (at […]). The A II infusion returns arterial pressure to or slightly above the control level. Once arterial pressure has stabilized with the A II infusion, baseline values for mean arterial pressure (MAP) and heart rate are taken. […]

Row | SMILES | lowering of A II dependent blood pressure, average
1 | FC(F)(F)c1nc2c(c(NCc3ccc(-c4ccccc4-c4nn[nH]n4)nc3)n1)CCCC2 [Example 9] | 70%

Target: angiotensin II receptor
Assay: rat adrenal receptor binding assay, displacement of radiolabeled (125I) angiotensin II
Conditions: rat adrenal cortex membranes; 1 nM 125I-A II; 35 min at 25° C.; pH 7.4; read-out: IC50, Inhibition of 125I Angiotensin II Binding
Protocol: The high affinity of the compounds for the angiotensin II receptor was established using a rat adrenal receptor binding assay, measuring the displacement of radiolabeled angiotensin II from the receptor, described as follows: Anesthetize male Sprague-Dawley rats (300-400 g body weight) with CO2 and sacrifice by cervical dislocation. Dissect adrenal glands and keep in ice-cold sucrose buffer (0.2M sucrose, 1 mM EDTA, 10 mM Trizma base, pH=7.2). Remove medulla by squashing. Mince the cortex, rinse and homogenize in a chilled ground glass tissue grinder with 15 mL sucrose buffer. Centrifuge at 3000×g for 10 min. (Sorvall RCSC centrifuge, SS34 rotor 6200 rpm). Decant supernatant through gauze. Centrifuge combined supernatant at 12000×g for 13 min. (Beckman ultracentrifuge, 80Ti rotor, 13000 rpm). Centrifuge the supernatant from the previous step at 102000×g for 60 min. (Beckman ultracentrifuge, 80Ti rotor, 38200 rpm). All steps are carried out at 4° C. Resuspend the pellet in 0.5 mL assay buffer (50 mM Tris HCI, 5 mM MgCl2, 0.2% BSA (protease-free), pH=7.4, 25° C.). Store on ice. Determine membrane protein by Lowry or Bradford assay with BSA as standard. The binding assay is performed in triplicate, in 12×75 mm plastic test tubes or in a 96-well plate (final volume of 0.25 mL). Add 140 μL assay buffer. Add 10 μL cold A II (to give final concentrations of 10^-10 -10^-7 M for standard curve and 10^-4 M for nonspecific binding), compounds (e.g., for final concentrations of 25 and 100 μM or 1 μM, 10 nM and 100 nM) in 50% DMSO, or 50% DMSO as a control. Add 50 μL membrane suspension (e.g., 10 μg protein). Preincubate for 30 min at 25° C. Add 50 μL ^125 I-A II which has been prepared as shown below (final concentration=1 nM). Incubate for 35 min at 25° C. Stop the incubation by adding 1 mL ice-cold buffer (assay buffer without BSA). Filter with GF/C filters on cell harvester (filters are presoaked in the assay buffer containing 1% polyethyleneimine). Rinse assay tubes 3× with 5 mL cold buffer (assay buffer without BSA). Cut and deposit the filter discs into test tubes and count on gamma counter for 1 min. Adjust the specific activity of ^125 I-A II purchased from New England Nuclear to 500 μCi/nmole by adding cold A II in water. Calculate the quantities of hot A II and the cold A II needed and make the dilution. Aliquot, seal tight, and store frozen until needed. Calculate the concentration of the total A II (hot+cold) after dilution. On the day of assay, thaw the frozen aliquot and adjust the volume to give a concentration of 5 pmole/mL (or 0.25 pmole/50 μL) with assay buffer (+protease-free BSA). For final concentration of 1 nM ^125 I-A II in the assay, add 50 μL (or 0.25 pmole) per test tube to a final volume of 250 μL. The results of these binding assays are reported as the inhibitory concentration of the test compound necessary to achieve fifty percent displacement of radiolabeled angiotensin II from its receptor (IC50), or the percent displacement of binding of A II at its receptor at 10^-8 M concentration of test compound (% I).

Row | SMILES | IC50
2 | CCCc1nc2ccccc2n1CC1=C(c2ccccc2-c2nnn[nH]2)CCC1 [Example 1, 2-Propyl-1-[[2-[2-(1H-tetrazol-5-yl)phenyl]-1-cyclopentenyl]methyl]-1H-benzimidazole] | 200 µM
3 | CCCc1nc2ccccc2n1Cc1ccc(C2CCCC2C(=O)O)cc1 (centres unmarked) [Example 4, 2-[4-[(2-Propyl-1H-benzimidazol-1-yl)methyl]phenyl]cyclopentane-1-carboxylic Acid] | 25 µM
4 | CCCc1nc2ccccc2n1CCN1CCN(c2ccccc2-c2nnn[nH]2)CC1 [Example 5, 2-Propyl-1-[2-[4-[2-(1H-tetrazol-5-yl)phenyl]-1-piperazinyl]ethyl]-1H-benzimidazole Potassium Salt] | 43 µM
5 | FC(F)(F)c1nc2c(c(NCc3ccc(-c4ccccc4-c4nn[nH]n4)nc3)n1)CCCC2 [Example 9] | 4.5 µM
6 | CCCc1nc2ccccc2n1Cc1ccc(-c2ncccc2C(=O)O)cc1 [Example 10, 2-[4-[(2-Propyl-1H-benzimidazol-1-yl)methyl]phenyl]-3-pyridinecarboxylic Acid] | 200 µM

Further compounds by falling IC50, results first:

Row | IC50 | SMILES
7 | 73 µM | CCCc1nc2ccccc2n1CC1=C(c2cccc(-c3nnn[nH]3)c2)CCC1 [Example 2, 2-Propyl-1-[[2-[3-(1H-tetrazol-5-yl)phenyl]-1-cyclopentenyl]methyl]1H-benzimidazole]
8 | 30 µM | CCCc1nc2ccccc2n1CCC1CCN(c2ccccc2-c2nnn[nH]2)CC1 [Example 6, 2-Propyl-1-[2-[1-[2-(1H-tetrazol-5-yl)phenyl]-4-piperidinyl]ethyl]-1H-benzimidazole]
9 | 24 µM | CCCc1nc2ccccc2n1Cc1ccc(-c2ccccc2-c2nnn[nH]2)nc1 [Example 7, 2-Propyl-1-[[2-[2-(1H-tetrazol-5-yl)phenyl]-5-pyridinyl]methyl]-1H-benzimidazole]
10 | 20 µM | CCCc1nc2ccccc2n1Cc1ccc(C2=C(C(=O)O)CCC2)cc1 [Example 3, 2-[4-[(2-Propyl-1H-benzimidazol-1-yl)methyl]phenyl]-1-cyclopentene-1-carboxylic Acid]
11 | 15 µM | CCCc1nc2c(C)cccc2n1Cc1ccc(-c2ccccc2-c2nnn[nH]2)nc1 [Example 8, 4-Methyl-2-propyl-1-[[2-[2-(1H-tetrazol-5-yl)phenyl]-5-pyridinyl]methyl]-1H-benzimidazole]
